Laboratory results from ChEMBL document CHEMBL1201862, “PubChem BioAssay data set” (2004).
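Values below derive from 48-hour exposures of cells grown in 96-well plates, with endpoints linearly interpolated between the two concentrations bracketing the appropriate inhibition level. GI50 = concentration required for 50% inhibition of growth.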 Activity calls are given as the source filed them. Rule as the data show it: active = GI50 up to about 1.1 µM and inactive = higher.

Legend:
Test in all cases: inhibition of tumour cell growth, NCI panel, 48 h
Hs-578T = test system: Hs-578T
DU-145 = test system: DU-145
MDA-N = test system: MDA-N
MOLT-4 = test system: MOLT-4
NCI-H226 = test system: NCI-H226
NCI-H460 = test system: NCI-H460
HCC 2998 = test system: HCC 2998
Malme-3M = test system: Malme-3M
SK-MEL-2 = test system: SK-MEL-2
K562 = test system: K562
SF-295 = test system: SF-295
SN12C = test system: SN12C
SK-OV-3 = test system: SK-OV-3
TK-10 = test system: TK-10
A549 = test system: A549
HCT-116 = test system: HCT-116
RXF 393 = test system: RXF 393
SF-268 = test system: SF-268

| Compound | GI50 (Hs-578T) | GI50 (DU-145) | GI50 (MDA-N) | GI50 (MOLT-4) | GI50 (NCI-H226) | GI50 (NCI-H460) | GI50 (HCC 2998) | GI50 (Malme-3M) | GI50 (SK-MEL-2) | GI50 (K562) | GI50 (SF-295) | GI50 (SN12C) | GI50 (SK-OV-3) | GI50 (TK-10) | GI50 (A549) | GI50 (HCT-116) | GI50 (RXF 393) | GI50 (SF-268) |
| --- | --- | --- | --- | --- | --- | --- | --- | --- | --- | --- | --- | --- | --- | --- | --- | --- | --- | --- |
| COc1cc(C2c3cc4c(cc3OC3(OC)COC(=O)C23)OCO4)cc(OC)c1OC (stereo not drawn) | 0.355 µM (active) | 0.395 µM (active) | 0.075 µM (active) | 0.456 µM (active) | 0.649 µM (active) | 0.38 µM (active) | 0.325 µM (active) | 0.605 µM (active) | 0.771 µM (active) | 0.23 µM (active) | 0.173 µM (active) | 0.478 µM (active) | 0.348 µM (active) | 1.19 µM (inactive) | 0.375 µM (active) | 0.267 µM (active) | 0.142 µM (active) | 0.514 µM (active) |
| c1cc2ccc3cc4ncccc4c4ccc(c1)c2c34 | > 100 µM (inactive) | 57.4 µM (inactive) | 41.9 µM (inactive) | 8.59 µM (inactive) | 17.5 µM (inactive) | 5.05 µM (inactive) | 25.6 µM (inactive) | 70.8 µM (inactive) | 16.6 µM (inactive) | 59.4 µM (inactive) | 17.1 µM (inactive) | 31.4 µM (inactive) | 37.2 µM (inactive) | 22.8 µM (inactive) | 9.31 µM (inactive) | 12 µM (inactive) | 46.8 µM (inactive) | 30.7 µM (inactive) |
| Cc1nc(O)nc2nc3ccc(Cl)cc3c(N(CCO)CCO)c12 | 10.7 µM (inactive) | > 100 µM (inactive) | > 100 µM (inactive) | > 100 µM (inactive) | 26.8 µM (inactive) | 48.2 µM (inactive) | > 100 µM (inactive) | > 100 µM (inactive) | > 100 µM (inactive) | 85.7 µM (inactive) | > 100 µM (inactive) | > 100 µM (inactive) | > 100 µM (inactive) | > 100 µM (inactive) | > 100 µM (inactive) | > 100 µM (inactive) | 73.6 µM (inactive) | > 100 µM (inactive) |
| CN(C)CCNc1ccc2c(=O)n(CCN(C)C)c(=O)n3c4ccc([N+](=O)[O-])cc4c(=O)c1c23 | 1.01 µM (active) | 0.267 µM (active) | 0.287 µM (active) | < 0.0141 µM (active) | 0.312 µM (active) | 0.0838 µM (active) | 0.387 µM (active) | 0.344 µM (active) | 0.397 µM (active) | 0.063 µM (active) | 0.359 µM (active) | 0.197 µM (active) | 0.76 µM (active) | 1.09 µM (active) | 0.184 µM (active) | 0.0769 µM (active) | 0.198 µM (active) | 0.334 µM (active) |
| CC(=O)Oc1ccc2c(c1)c1c(OC(C)=O)c3ccccc3c(OC(C)=O)c1n2Cc1cccc(C)c1 | 24.9 µM (inactive) | > 100 µM (inactive) | 60.4 µM (inactive) | 34.6 µM (inactive) | > 100 µM (inactive) | 30.3 µM (inactive) | 22.8 µM (inactive) | 77.6 µM (inactive) | 20 µM (inactive) | 32.1 µM (inactive) | 19.5 µM (inactive) | > 100 µM (inactive) | 20.4 µM (inactive) | 50.8 µM (inactive) | 31.3 µM (inactive) | 33.2 µM (inactive) | 38.9 µM (inactive) | 29.8 µM (inactive) |
| O=C(c1ccccc1)C1C(c2ccccc2[N+](=O)[O-])N1C1CCCCC1 (stereo not drawn) | 10.3 µM (inactive) | 10.1 µM (inactive) | 2.06 µM (inactive) | 2.43 µM (inactive) | 17 µM (inactive) | 9.2 µM (inactive) | 6.79 µM (inactive) | 12.4 µM (inactive) | 5.21 µM (inactive) | 2.79 µM (inactive) | 15.4 µM (inactive) | 4.39 µM (inactive) | 22.1 µM (inactive) | 2.74 µM (inactive) | 16.6 µM (inactive) | 1.8 µM (inactive) | 4.27 µM (inactive) | 9.2 µM (inactive) |
